# pIC50: −log10 of the molar value.
# What was measured:
# hERG = target: T1, hERG (Homo sapiens, UniProt Q12809); assay: hERG ChanTest Fast Patch assay; format: cell-based
# T1 construct: Charles River Laboratories International, Inc. (ChanTest assay service)
# Method: The MDR1 efflux protocol is disclosed in Example 35 hereinbelow. The hERG IC50 values were measured using the ChanTest Fast Patch assay, available from Charles River Laboratories International, Inc. (http://www.criver.com/products-services/drug-discovery/cap abilities/ion-channel/selectivity-profiling).
# [1] = test system: Cryopreserved human hepatocytes; assay: In vitro metabolic stability in human hepatocytes (Example 34); format: in vitro ADME; details: 1 μM, predicted hepatic extraction ratio
# Method: In vitro metabolic stabilities were studied at a concentration of 1 μM in the presence of liver microsomes and isolated hepatocytes.
# A stock solution of the test compound was prepared at 10 mM (active compound) in DMSO. The in vitro stability of the test compound (1 μM) was assessed in the presence of hepatocytes as follows. Cryopreserved hepatocytes were thawed, isolated from shipping media and diluted to a density of 1×10^6 viable cells/mL, according to the supplier's guidelines, using Dulbecco's Modified Eagle Medium, 1×, high glucose (DMEM, Invitrogen, Carlsbad, Calif.). Viability was determined by trypan blue exclusion using a hemocytometer (3500 Hausser, VWR, West Chester, Pa.). […]
# Data were acquired and peak areas were calculated for test compounds and the internal standard using Analyst 1.6.1 software (Sciex). […]
# All calculations were performed using BioAssay Enterprise. The mean peak area ratios were calculated by averaging the peak area ratios (n=2) of test compound and the internal standard for each sample. Percent remaining was calculated by determining the ratio of the peak area ratio at each time point to the peak area ratio of the time-zero samples. The rate of loss of test compound (km) was determined by linear regression of—1n(f(t)) versus time. […] The t½ was determined dividing 1n(2) by km. […]
# [2] = Thermodynamic aqueous solubility of a crystalline solid (Example 33); format: physicochemical; details: aqueous phosphate buffer, thermodynamic from solid, pH 6.5 buffer, 24 hours at room temperature
# Method: General method to measure the thermodynamic aqueous solubility of a crystalline, organic solid.
# To make a 0.03 M (30 mM) Phosphate Buffer (25° C.) at pH 7.4, the above recipe was adjusted as follows: 6.72 mL of 1 M potassium phosphate (monobasic) were mixed with 23.28 mL of 1 M potassium phosphate (dibasic) and diluted to one liter with water. The pH was adjusted with HCl or NaOH. Alternatively, 0.9144 g (6.72×10^−3 mol) of potassium phosphate monobasic were mixed with 4.0908 g (23.28×10^−3 mol) of potassium phosphate dibasic and diluted to 1 L with water to get a 30 mM solution of Phosphate Buffer (25° C.).
# 2. Aqueous phosphate buffer, 30 mM, adjusted to pH 6.5
# 1. ˜0.5 mg of compound were dissolved in 2.5% DMSO/MeOH (or other organic) to a final concentration of 250 μg/mL stock
# • 1. ≥0.5 mg of compound were accurately weighed into a 4-mL vial for each pH to be tested. • 2. The appropriate amount of desired buffer was added to the appropriate vials to get a resulting concentration of 1.02 mg/mL. • 3. Vials were capped and shaken at 350 rpm for 24 hours at room temperature. • 4. ˜450 μL of sample solutions were pipetted from 4-mL vials into 96 DWP. • 5. The plate was centrifuged at 3500 rpm for 10 minutes at 20° C. and 250 μL of supernatant were transferred to catch plate. • 6. […]
# 4. The model was used to quantify the amount of compound in the aqueous solutions. […]
# T1 sequence (Q12809 whole entry): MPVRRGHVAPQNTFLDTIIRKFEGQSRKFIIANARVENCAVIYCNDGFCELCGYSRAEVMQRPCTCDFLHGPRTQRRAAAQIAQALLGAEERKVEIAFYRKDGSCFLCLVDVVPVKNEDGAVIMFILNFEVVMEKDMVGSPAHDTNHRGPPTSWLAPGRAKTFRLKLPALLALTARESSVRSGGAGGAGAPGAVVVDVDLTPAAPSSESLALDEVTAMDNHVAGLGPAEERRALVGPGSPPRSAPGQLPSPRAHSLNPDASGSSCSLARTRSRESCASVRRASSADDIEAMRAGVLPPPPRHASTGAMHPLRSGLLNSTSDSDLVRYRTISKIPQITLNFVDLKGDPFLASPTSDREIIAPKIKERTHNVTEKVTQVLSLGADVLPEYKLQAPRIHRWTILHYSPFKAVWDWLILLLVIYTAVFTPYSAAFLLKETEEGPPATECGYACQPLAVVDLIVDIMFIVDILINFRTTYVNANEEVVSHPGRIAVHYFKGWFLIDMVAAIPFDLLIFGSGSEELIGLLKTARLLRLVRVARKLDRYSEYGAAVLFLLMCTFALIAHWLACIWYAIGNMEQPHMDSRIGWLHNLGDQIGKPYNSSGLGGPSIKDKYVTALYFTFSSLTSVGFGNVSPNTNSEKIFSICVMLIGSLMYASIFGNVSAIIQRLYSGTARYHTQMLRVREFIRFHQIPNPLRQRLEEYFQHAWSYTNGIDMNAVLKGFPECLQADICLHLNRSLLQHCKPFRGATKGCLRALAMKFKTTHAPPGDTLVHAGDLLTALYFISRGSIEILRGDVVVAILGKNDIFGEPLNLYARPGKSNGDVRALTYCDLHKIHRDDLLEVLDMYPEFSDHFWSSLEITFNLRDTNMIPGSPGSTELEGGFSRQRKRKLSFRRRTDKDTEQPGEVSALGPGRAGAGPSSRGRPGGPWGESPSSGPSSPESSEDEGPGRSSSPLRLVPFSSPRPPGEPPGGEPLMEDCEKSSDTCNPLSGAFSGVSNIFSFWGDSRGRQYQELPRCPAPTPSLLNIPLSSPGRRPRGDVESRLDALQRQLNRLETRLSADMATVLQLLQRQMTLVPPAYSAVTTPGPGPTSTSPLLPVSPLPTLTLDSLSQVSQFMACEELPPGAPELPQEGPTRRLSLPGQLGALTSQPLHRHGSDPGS
Structure (SMILES),pIC50 (hERG),Human Hepatocyte Clearance (% ER) [1] [% ER],solubility at 24 h [2] [µg/mL]
C[C@@H]1CCc2ncc(F)cc2[C@H]2CCCN2c2ccn3ncc(c3n2)C(=O)N1 [Formula I],4.57,48,111
C[C@H]1CCc2ncc(F)cc2[C@H]2CCCN2c2ccn3ncc(c3n2)C(=O)N1 [formula I′],5.05,74,43

# — patent US11091486B2, “Process for the preparation of pyrazolo[1,5-a]pyrimidines and salts thereof” (Array BioPharma Inc., priority 2016, dated 2021)
